Substitutions are numbered along the chain they refer to. Where two headings read alike, the source gives them in different places.
What was measured:
[1] = system: A549; test: Test Example 1 in vitro cytotoxic activity (CTG), A549; format: cell-based; settings: for IC50: Homo sapiens
Method: (§1) In this experiment, the ATP content was determined using CTG to reflect the survival condition of the tumor cells. […] The killing effect of the toxin molecule was then assayed according to this condition.
(§2) 1) Cell plating: each of A549, SKBR3 and MDA-MB-468 was digested with pancreatin, resuspended in a culture medium and counted, and 6.33×10^5 cells were added to the medium to make a final volume of 38 mL. 180 μL of the culture medium was plated in a 96-well plate (3903) to obtain a cell density of 3 K/well, and the cells were cultured at 37° C. for 24 h.
(§3) 2 mM solution (10-fold dilution of stock solution in DMSO) was prepared in column 1 of the plate 1, then 10-fold gradient dilution in DMSO was performed in columns 2 to 10. The wells in column 11 were filled with DMSO. 95 μL of corresponding culture medium was added to each well of columns 2 to 11 of the plate 2, and 5 μL of solution was pipetted from columns 2 to 11 of the plate 1 and added to the plate 2. After the solution was mixed well, 20 μL of solution was pipetted and added to the plated cells. Each sample was run in duplicate. The cells were continuously cultured for 5 days.
(§4) 3) CTG assay: the plate was taken out and allowed to equilibrate to room temperature. 90 μL of CTG was added to each well and reacted at room temperature for 10 min away from the light. The luminescence value was read using a microplate reader and IC50 was calculated.

[2] = system: SKBR3; test: Test Example 1 in vitro cytotoxic activity (CTG), SKBR3; format: cell-based; settings: for IC50: Homo sapiens, SK-BR-3, 120 h
Method: as §1, §2, §3, §4

[3] = system: MDA-MB-468; test: Test Example 1 in vitro cytotoxic activity (CTG), MDA-MB-468; format: cell-based; settings: for IC50: Homo sapiens
Method: as §1, §2, §3, §4

[4] = biological target: T1, CD79B protein on the surface of DoHH2 cells (Homo sapiens, UniProt P40259); test: FACS of purified anti-human CD79B mouse monoclonal antibodies on DoHH2 cells; format: binding; settings: for FACS binding force: antibodies diluted 1:10 from 100 nM, FIGS. 9A, 9B; for FACS binding force compared with SN8: positive control antibody SN8
T1 construct: endogenous in cells; host or cells: DoHH2 (DOHH-2) cells
T1 sequence (P40259 29-229): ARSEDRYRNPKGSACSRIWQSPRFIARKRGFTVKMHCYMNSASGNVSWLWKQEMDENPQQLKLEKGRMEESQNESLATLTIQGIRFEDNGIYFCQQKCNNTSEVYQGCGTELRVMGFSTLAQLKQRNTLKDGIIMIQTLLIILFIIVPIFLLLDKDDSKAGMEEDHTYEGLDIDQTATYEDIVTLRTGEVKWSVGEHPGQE
T1 sequence (P11912 33-226 partner): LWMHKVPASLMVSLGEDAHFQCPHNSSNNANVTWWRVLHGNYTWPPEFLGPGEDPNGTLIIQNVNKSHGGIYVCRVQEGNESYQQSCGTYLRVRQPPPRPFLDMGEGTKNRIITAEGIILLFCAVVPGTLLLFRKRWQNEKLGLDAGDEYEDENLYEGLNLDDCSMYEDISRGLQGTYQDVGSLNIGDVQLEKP
Method: 3) Assay on anti-human CD79B mouse monoclonal antibodies by FACS The cell suspension of DoHH2 cells was centrifuged, resuspended in PBS containing 0.1% BSA, and counted. 100 μL of antibody diluted in a 1:10 ratio from 100 nM was added, and the cells were incubated at room temperature for 1 h and washed three times. Then Anti-Mouse IgG (Fc specific)-FITC secondary antibody was added, and the cells were incubated at room temperature for 30 min away from the light, washed three times, gently resuspended in PBS containing 0.1% BSA, and loaded on the machine for assay. […] The specific data are shown in FIGS. 9A and 9B, in which hIgG1 is a negative control antibody and SN8 is a positive control antibody. SN8 is an antibody (reference sequence source: US20170362318A) used in the antibody-drug conjugate polatuzumab vedotin developed by Roche pharmaceutical. Polatuzumab vedotin has been approved by the FDA for marketing.

[5] = biological target: T2, human CD79B (Homo sapiens, UniProt P40259); test: ELISA of anti-human CD79B hybridoma positive clones; format: binding; parameters: the extracellular region (ECD) of human CD79B comprises 159 amino acids (Met1-Asp159); made in house; host or cells: 293F cells; settings: hybridoma cell supernatant, read at 450 nm
T2 sequence (P40259 29-159 limits assumed): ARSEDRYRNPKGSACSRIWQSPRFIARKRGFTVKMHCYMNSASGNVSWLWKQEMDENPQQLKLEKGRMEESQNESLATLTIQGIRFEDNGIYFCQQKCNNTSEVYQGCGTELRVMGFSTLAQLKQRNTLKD
Method: (§5) 3) ELISA screening A 96-well plate was coated with 1 μg/mL antigen at 50 μL/well and incubated in a refrigerator at 4° C. overnight. The next day, the coated antigen plate was washed once (washing solution: 1×PBST). After washing, the plate was blocked with 1% BSA blocking solution prepared in 1×PBST at 37° C. for 1 h. After washing the plate 3 times with 1×PBST, 50 μL of the test cell supernatant was added, and the plate was incubated in an incubator at 37° C. for 1 h. After washing the plate 3 times with 1×PBST, 100 μL of goat anti-mouse secondary antibody diluted in a 1:5000 ratio was added, and the plate was incubated in an incubator at 37° C. for 0.5 h. After washing the plate, TMB color development solutions A and B were mixed in a 1:1 ratio for color development. 15 min later, the color development reaction was stopped with 1 N hydrochloric acid. […] value was read at 450 nm on a Spectra Max M5 microplate reader.
(§6) 5) Identification of hybridoma positive clones A plurality of specific antibodies against human CD79B antigen were obtained; and 17 strains of hybridomas having strongest binding force to ELISA and FACS in assays were taken for production and purification of antibodies. Specific antibodies against monkey CD79B antigen were also obtained; and 4 strains of hybridomas having strongest binding force to ELISA and FACS in assays were taken for production and purification of antibodies. Assay results of anti-monkey CD79B hybridoma positive clone cells by FACS are shown in Table 4. mIgG was used as negative control in the both assays.

[6] = biological target: T1, CD79B protein on the surface of DoHH2 cells; test: FACS of anti-human CD79B hybridoma positive clones; format: binding
Method: 4) FACS screening The suspension of DoHH2 cells was centrifuged, resuspended in PBS containing 0.1% BSA, and counted. The test serum was added, and the cells were incubated at room temperature for 60 min and washed. Then Anti-Mouse IgG (Fc specific)-FITC secondary antibody was added, and the cells were incubated at room temperature for 30 min away from the light, washed three times, gently resuspended in PBS containing 0.1% BSA, and loaded on the machine for assay.
as §6

[7] = biological target: T2, human CD79B; test: ELISA of purified anti-human CD79B mouse monoclonal antibodies; format: binding; parameters: the extracellular region (ECD) of human CD79B comprises 159 amino acids (Met1-Asp159); made in house; host or cells: 293F cells; settings: purified antibodies diluted 1:10 from 100 nM; FIG. 8
Method: as §5, with “2) Assay on anti-human CD79B mouse monoclonal antibodies by” for “3)”, “ELISA” for “ELISA screening”, “antibody diluted in a 1:10 ratio from 100 nM” for “the test cell supernatant”

C=C1C[C@@H]2CC[C@@]34C[C@H]5O[C@H]6[C@@H](O3)[C@H]3O[C@H](CC[C@@H]3O[C@H]6[C@H]5O4)CC(=O)C[C@@H]3[C@@H](OC)[C@@H](C[C@H](O)CN)O[C@H]3C[C@H]3O[C@@H](CC[C@@H]1O2)C[C@@H](C)C3=C [Eribulin, reference compound]
IC50 ([1]; 120 h, A549, 5 days, CTG, read-out: IC50): 0.661 nM
IC50 ([2]; SKBR3, 5 days, CTG, read-out: IC50): 0.715 nM
IC50 ([3]; 120 h, MDA-MB-468, 5 days, CTG, read-out: IC50): 0.482 nM

C=C1C[C@@H]2CC[C@@]34C[C@H]5O[C@H]6[C@@H](O3)[C@H]3O[C@H](CC[C@@H]3O[C@H]6[C@H]5O4)CC(=O)C[C@@H]3[C@@H](OC)[C@@H](C[C@@H](CN)OC)O[C@H]3C[C@H]3O[C@@H](CC[C@@H]1O2)C[C@@H](C)C3=C [D-1]
Maximum inhibition (%) ([1]; A549, 5 days, CTG): 81.34%
IC50 ([1]; A549, 120 h): 0.515 nM
IC50 [2]: 0.205 nM
Maximum inhibition (%) ([2]; SKBR3, 5 days, CTG): 96.87%
killing effect compared with eribulin ([2]; three tumor cell lines SKBR3, MDA-MB-468 and A549): good killing effect in three tumor cell lines and is significantly superior to the positive drug eribulin
IC50 ([3]; MDA-MB-468, 120 h): 0.183 nM
Maximum inhibition (%) ([3]; MDA-MB-468, 5 days, CTG): 88.01%

B1: mAb016: anti-human CD79B mouse monoclonal antibody, hybridoma clone 83C2D4 (antibody, V domains shown)
VH: QVQLQQSGAELARPGASVKLSCKASGYIFTNYGIIWVKQRTGQGLEWIGDIFPGSGNTYYNENFKGKATLTADKSSSTAYMELRSLTSEDSAVYFCSRGELGDFDYWGQGTTLTVSS
VL: VVLMTQTPLSLPVSLGDQASISCRSSQNIVHSDGTTYLEWYLQKPGQSPKLLIYKVSNRFSGVPDRFSGSGSGTDFTLKISRVEAEDLGIYYCFQGSHVPWTFGGGTKLEIK
FACS binding force [4]: strongest FACS binding force
FACS binding force compared with SN8 [4]: superior binding force to SN8
Results (OD450) [5]: 3.46
Mean fluorescence value [6]: 9990
ELISA binding force [7]: strongest ELISA binding force

B2: mAb017: anti-human CD79B mouse monoclonal antibody, clone 86F11F6; VH SEQ ID NO: 5, VL SEQ ID NO: 6 (antibody, listed as Mus musculus, V domains shown)
VH: QVQLQQSGAELARPGASVKLSCKASGYTFTTYGINWVKQRTGQGLEWIGEIYPRSGNIYYNEKFKGKATLTADKSSSTAYMELRSLTSEDSAVYFCARGSDYDGDFAYWGQGTLVTVSA
VL: B1 VL with V1D, N28S, S32H, T35N, I90V, K108Q
FACS binding force [4]: strongest FACS binding force
FACS binding force compared with SN8 [4]: superior binding force to SN8
Results (OD450) [5]: 3.80
Mean fluorescence value [6]: 8132
ELISA binding force [7]: strongest ELISA binding force

Source: patent US12642862B2, “Anti-CD79B antibody-drug conjugate, and preparation method therefor and pharmaceutical use thereof” (TUOJIE BIOTECH (SHANGHAI) CO., LTD., priority 2020, dated 2026)
